The source of these data is publication PMC6539231, “4,5-Diaryl 3(2H)Furanones: Anti-Inflammatory Activity and Influence on Cancer Growth” (Molecules, 2019).

“Also recorded” adds a separate entry of the source. A value given as a limit tells only on which side of the number the result lay.

The target in one data set is T1, ovine COX-1 (Ovis aries, UniProt P05979).
T1 construct: purchased Cayman Chemical Co., Ann Arbor, MI, USA
T1 sequence (P05979 25-600): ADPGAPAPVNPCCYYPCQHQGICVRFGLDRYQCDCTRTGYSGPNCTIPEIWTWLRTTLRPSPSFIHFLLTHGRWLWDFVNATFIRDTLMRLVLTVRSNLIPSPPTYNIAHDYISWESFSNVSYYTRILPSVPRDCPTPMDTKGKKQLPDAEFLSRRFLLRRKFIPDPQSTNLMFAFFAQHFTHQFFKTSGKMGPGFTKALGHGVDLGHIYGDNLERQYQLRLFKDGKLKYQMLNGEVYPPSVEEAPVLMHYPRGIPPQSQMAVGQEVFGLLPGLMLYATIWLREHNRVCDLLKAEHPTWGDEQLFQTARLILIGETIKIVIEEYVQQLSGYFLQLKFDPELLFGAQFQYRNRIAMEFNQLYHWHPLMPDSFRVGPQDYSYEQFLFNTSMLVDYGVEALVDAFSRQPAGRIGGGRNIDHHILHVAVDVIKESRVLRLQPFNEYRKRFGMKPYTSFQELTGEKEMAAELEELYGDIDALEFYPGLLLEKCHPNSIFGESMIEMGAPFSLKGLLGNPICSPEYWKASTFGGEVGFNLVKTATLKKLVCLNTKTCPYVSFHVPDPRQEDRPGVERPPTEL
In words: In vitro COX-1 inhibition (Cayman COX Inhibitor Screening Assay kit). It is filed as biochemical. The following applies: for % Inhibition (COX-1): Compound concentration 50 μΜ, arachidonic acid 0.1 μM. How it is done: (§1) The COX-1 and COX-2 activities of the compounds were measured using ovine COX-1 and human recombinant COX-2 enzymes included in the “COX Inhibitor Screening Assay” kit provided by Cayman (Cayman Chemical Co., Ann Arbor, MI, USA) as reported previously

The next data set addresses T2, human recombinant COX-2 (Homo sapiens, UniProt P35354).
T2 construct: purchased Cayman Chemical Co., Ann Arbor, MI, USA
T2 sequence (P35354 18-604): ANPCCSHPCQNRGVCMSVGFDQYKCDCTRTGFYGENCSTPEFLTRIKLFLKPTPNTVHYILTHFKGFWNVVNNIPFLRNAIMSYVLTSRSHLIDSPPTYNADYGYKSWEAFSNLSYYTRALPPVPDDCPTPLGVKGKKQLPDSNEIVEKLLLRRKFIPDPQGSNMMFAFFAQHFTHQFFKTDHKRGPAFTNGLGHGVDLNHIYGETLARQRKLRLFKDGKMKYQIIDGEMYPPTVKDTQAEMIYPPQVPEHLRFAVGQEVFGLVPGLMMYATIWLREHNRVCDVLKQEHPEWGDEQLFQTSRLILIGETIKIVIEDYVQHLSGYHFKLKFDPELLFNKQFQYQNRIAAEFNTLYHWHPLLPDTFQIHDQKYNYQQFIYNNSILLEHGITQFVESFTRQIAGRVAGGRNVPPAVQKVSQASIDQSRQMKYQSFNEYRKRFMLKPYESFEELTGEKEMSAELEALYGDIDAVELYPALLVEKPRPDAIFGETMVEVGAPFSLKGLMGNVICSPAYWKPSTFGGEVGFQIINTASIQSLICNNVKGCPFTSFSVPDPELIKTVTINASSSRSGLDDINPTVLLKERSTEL
In words: In vitro COX-2 inhibition (Cayman COX Inhibitor Screening Assay kit). It is filed as biochemical. The following applies: for % Inhibition (COX-2): Compound concentration 50 μΜ, arachidonic acid 0.1 μM. The procedure: as §1

Data set [1] relates to carrageenan mice paw oedema. In words: Carrageenin-induced mouse paw edema. It is filed as in vivo, mice (AKR). The following applies: Mus musculus, ip; Dose 0.1 µmol/g; intraperitoneally, simultaneously with carrageenin; read-out: CPE, %. The procedure:
From the data of Table 7 it is obvious that anti-inflammatory activity of alkylsulfones and sulfoxides of furan-3(2H)-ones, including annelated derivatives are very similar.
The anti-inflammatory activity of compounds was performed using the carrageenan mice paw oedema assay. Animal of both sex (AKR), with exception of pregnant females were housed under standard conditions, receiving only water during the experimental period. […] The detailed description of the whole experiment reported previously. All the biological experiments were carried out in full compliance with the European Convention for the Protection of Vertebrate Animals used for Experimental or Other Scientific Purposes (ETS NO 123, Strasbourg, 03/18/1986): Strasbourg (France). European Treaty Series, № 123, March 18, 1986. 11 P. The project identification code and date of approval is 350880/3468 of 15-12-2014, University of Thessaloniki.

The test system of data set [2] is MCF-7 cells. The data set is described as follows: Growth inhibition assay, MCF-7 cells. The following applies: Homo sapiens, MCF7, 48 h, 48 h exposure. It is filed as cell-based, human.
Procedure: (§2) The cells were grown in the presence of each of the selected compounds as well as of the two well-known anti-neoplastic drugs gefitinib and 5-fluorouracil.
(§3) Each cell culture was treated appropriately, ensuring that DMSO concentration was kept below ≤ 0.2% (v/v) after every dilution. Cells were seeded in 24-well plates, at an initial density of 5 × 10^4 cells/mL. […] Cells were allowed to grow for additional 48 h before being harvested by trypsinization and subsequently counted (cell density; number of cells/mL) using a hemocytometer (Neubauer counting chamber) and optical microscopy. Cell growth was expressed as a percentage relative to that for the untreated control culture (only cells and medium, CTL).
For data set [3], the system named is MCF-7 cells. In words: Combination (synergy) growth assay in MCF-7 cells, Combination Index. It is filed as cell-based, human. To be noted: MCF-7, 48 h; for Combination Effect with 5-fluorouracil / CI, combination with 5-fluorouracil: + 0.3 μM 5-fu; for % Cell Growth, combination with 5-fluorouracil: + 0.3 μM 5-fu (21.3 μM 1h, 2.9 μM 1g, 3.8 μM x-1, 29 μM cel); for CI, combination with 5-fluorouracil / CI, combination with gefitinib: CI <1 synergy, >1 antagonism; for Combination Effect with gefitinib / CI, combination with gefitinib: + 70 μM gef; for % Cell Growth, combination with gefitinib: + 70 μM gef (27.5 μM 1h, 10 μM 1g, 10 μM x-1, 29 μM cel). The procedure:
In addition, exposure of the MCF-7 cells to each of the compounds in combination with each one of the two anti-neoplastic drugs was performed in order to study the synergistic effect of the compounds. The results are shown in Table 9 and Figure 5 and Figure 6.

For data set [4], the system named is MCF-7 cells. The data set is described as follows: Combination (synergy) growth assay in MCF-7 cells, Combination Index. It is filed as cell-based, human. To be noted: MCF-7, 48 h; for Combination Effect with celecoxib / CI, combination with celecoxib: + 29 μM cel; for % Cell Growth, combination with celecoxib: + 29 μM cel (21.3 μM 1h, 2.9 μM 1g, 3.8 μM x-1); for CI, combination with celecoxib: CI <1 synergy, >1 antagonism.

The test system of another data set is HSC-3 cells. In words: Growth inhibition assay, HSC-3 cells. To be noted: for HSC-3 % Cell Growth: Compound concentration: 10μΜ; for IC50: Homo sapiens, HSC-3, 48 h, read-out: HSC-3 IC50 Values.

Procedure for HSC-3 cells: as §2, §3

The compound `CC1(C)OC(c2ccc(F)cc2)=C(c2ccc(S(C)(=O)=O)cc2)C1=O` [1h, 5-(4′-Fluorophenyl)-2,2-dimethyl-4-[4′-(methylsulfonyl)phenyl]-furan-3(2H)-one] registered a melting point of 191 to 192 °C. The “% Inhibition (COX-1)” value at ovine COX-1 is on record as 32%. Also, the “% Inhibition (COX-2)” value at human recombinant COX-2 was 0%. For the same compound, the inhibition in vivo at 0.1 µmol/g in data set [1] came to 48.8%. The same compound gave an IC50 with MCF-7 cells [2] of 24 µM. In the data set on MCF-7 cells [3], the “Combination Effect with 5-fluorouracil” value was “synergism”; the “% Cell Growth, combination with 5-fluorouracil” value stood at 27.3%; the “CI, combination with 5-fluorouracil” value is 0.533 ± 0.015 <1; the “Combination Effect with gefitinib” value is recorded as “antagonistic effect; also recorded: antagonism”. Also, in the data set with MCF-7 cells [3], the “% Cell Growth, combination with gefitinib” value came to 45.9% and the “CI, combination with gefitinib” value was >1. In the data set with MCF-7 cells [4], the “Combination Effect with celecoxib” value is “antagonism”; the “% Cell Growth, combination with celecoxib” value came to 38.6%; the “CI, combination with celecoxib” value was >1. Further, in the data set on HSC-3 cells, the “HSC-3 % Cell Growth” value is listed as 100 ± 10% and the IC50 came out at 90 µM.
For the compound `C[S+]([O-])c1ccc(C2=C(c3ccc(F)cc3)OC(C)(C)C2=O)cc1` (stereo not shown) [1g, 5-(4′-Fluorophenyl) 2,2-dimethyl-4-[4-(methylsulfinyl)phenyl]-furan-3(2H)-one], on ovine COX-1, the “% Inhibition (COX-1)” value worked out at 73%. The IC50 on ovine COX-1 (read-out: Experimental IC50 COX-1) is 2.8 µM. The “% Inhibition (COX-2)” value at human recombinant COX-2 amounted to 0%. Besides, on human recombinant COX-2 (read-out: Experimental IC50 COX-2), the IC50 is > 50 µM. In data set [1], the inhibition in vivo at 0.1 µmol/g stood at 49%. Also, in the data set on MCF-7 cells [2], the IC50 came out at 10 µM. For the same compound, in the data set on MCF-7 cells [3], the “Combination Effect with 5-fluorouracil” value is on record as “synergism”; the “% Cell Growth, combination with 5-fluorouracil” value was found to be 19.1%; the “CI, combination with 5-fluorouracil” value is recorded as 0.058 ± 0.010 <1; the “Combination Effect with gefitinib” value is recorded as “synergism”. For the same compound, in the data set on MCF-7 cells [3], the “% Cell Growth, combination with gefitinib” value came out at 36.5% and the “CI, combination with gefitinib” value was 0.780 ± 0.200 < 1. Further, in the data set with MCF-7 cells [4], the “Combination Effect with celecoxib” value was “synergism”; the “% Cell Growth, combination with celecoxib” value is 36.6%; the “CI, combination with celecoxib” value was 0.750 ± 0.025 < 1. Moreover, in the data set with HSC-3 cells, the “HSC-3 % Cell Growth” value is recorded as 36 ± 4% and the IC50 was 7.5 µM. The HSC-3 growth inhibition with HSC-3 cells (concentration of 10 μΜ) worked out at 64%.
